Patent publication US20260274876A1, “3-PYRROLIDINE-INDOLE DIMERS AS SEROTONERGIC AGENTS USEFUL FOR THE TREATMENT OF DISORDERS RELATED THERETO” (MINDSET PHARMA INC., priority 2022, published 2026)
Read-outs that look alike come from different tables or passages of the source.

Tests used:
[1] = biological target: T1, human 5-HT1A receptor (Homo sapiens, UniProt P08908); experiment: Human 5-HT1A radioligand binding assay ([3H]-8-Hydroxy-DPAT)
T1 sequence (P08908 1-422): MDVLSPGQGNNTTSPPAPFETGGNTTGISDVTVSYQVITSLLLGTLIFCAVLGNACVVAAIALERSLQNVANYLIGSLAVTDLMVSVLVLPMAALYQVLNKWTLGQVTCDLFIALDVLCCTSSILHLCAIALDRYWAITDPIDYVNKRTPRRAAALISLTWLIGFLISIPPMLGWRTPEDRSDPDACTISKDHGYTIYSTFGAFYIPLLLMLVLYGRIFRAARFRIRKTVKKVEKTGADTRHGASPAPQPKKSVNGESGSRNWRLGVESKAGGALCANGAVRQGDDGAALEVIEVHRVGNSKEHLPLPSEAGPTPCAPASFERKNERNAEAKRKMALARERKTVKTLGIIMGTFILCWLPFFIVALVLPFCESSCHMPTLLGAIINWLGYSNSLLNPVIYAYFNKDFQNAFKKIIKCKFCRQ
Method: The objective of this study was to evaluate the binding properties of test compounds on 5-hydroxytryptamine receptor 1A (5-HT1A).
• 1. The assay buffer was prepared following the table below.
• 2. 8 doses of reference and test compounds were prepared starting from 10 mM stock solution as required by 5-fold serial dilutions with 100% (v/v) DMSO. • 3. UniFilter-96 GF/B plate was pretreated: • i. 50 μl/well of 0.5% (v/v) PEI was added to UniFilter-96 GF/B plates. The plates were sealed and incubated at 4° C. for 3 hrs. • ii. After incubation, the plates were washed 3 times with ice-cold wash buffer (50 mM Tris, pH7.4). • 4. Assay plate was prepared: • i. Cell membrane was diluted with assay buffer and 100 μl/well was added to 96 round well plates to reach a concentration of 20 μg/well. • ii. 8 concentrations of reference or test compounds were prepared and 50 μl/well was added to 96 round deep well plates. • iii. [3H]-8-Hydroxy-DPAT was diluted with assay buffer to 2 nM (4×final concentration) and 50 μl/well was added to 96 round well plates. • 5. The plate was centrifuged at 1000 rpm for 30 secs and then agitated at 600 rpm, R.T. for 5 min. • 6. The plates were sealed and the plate was incubated at 27° C. for 90 min. • 7. The incubation was stopped by vacuum filtration onto GF/B filter plates followed by 4 times washing with ice-cold wash buffer (50 mM Tris, pH7.4). • 8. The plates were dried at 37° C. for 45 min. • 9. The filter plates were sealed and 40 μl/well of scintillation cocktail was added. • 10. The plate was read by using a Microbeta^2 microplate counter.
• 1. For reference and test compounds, the results were expressed as % Inhibition, using the normalization equation: N=100−100×(U−C2)/(C1−C2), where U is the unknown value, C1 is the average of high controls, and C2 is the average of low controls. • 2. The IC50 was determined by fitting percentage of inhibition as a […] of compound concentrations with Hill equation using XLfit.

[2] = biological target: human 5-HT2A receptor (Homo sapiens, UniProt P28223); experiment: Human 5-HT2A functional FLIPR assay (agonist mode); assay type: cell-based; parameters: expressed in transfected cells; conditions: for RFU@10 μM: FLIPR, h5-HT2A, curve fitting with activation (%) @ 10 mM with RFU (footnote)
Sequence of human 5-HT2A receptor (P28223 whole entry): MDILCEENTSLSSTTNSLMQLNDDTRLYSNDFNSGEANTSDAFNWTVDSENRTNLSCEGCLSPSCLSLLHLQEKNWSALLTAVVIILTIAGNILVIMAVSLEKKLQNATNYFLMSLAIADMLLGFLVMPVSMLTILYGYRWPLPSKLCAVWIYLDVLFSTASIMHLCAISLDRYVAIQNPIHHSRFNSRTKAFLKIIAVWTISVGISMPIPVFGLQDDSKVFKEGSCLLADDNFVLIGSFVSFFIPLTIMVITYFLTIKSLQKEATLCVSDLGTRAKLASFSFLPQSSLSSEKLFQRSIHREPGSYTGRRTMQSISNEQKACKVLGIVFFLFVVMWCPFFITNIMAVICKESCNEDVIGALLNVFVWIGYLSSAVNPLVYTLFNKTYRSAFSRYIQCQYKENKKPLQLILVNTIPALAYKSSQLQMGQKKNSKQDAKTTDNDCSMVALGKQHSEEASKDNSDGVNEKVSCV
Method: The potential excitatory effects of compounds targeting on human 5-hydroxytryptamine receptor 2A (5-HT2A) under agonist mode was assessed.
HTR2A&Gα15-HEK293 cells were cultured in DMEM medium containing 10% dialyzed FBS and 1×penicillin-streptomycin, 100 μg/mL Hygromycin B and 300 μg/mL G418. The cells were passaged about three times a week, maintained between ~30% to ~90% confluence.
• 1. The cell culture medium (DMEM medium containing 10% dialyzed FBS and 1×penicillin-streptomycin, 100 μg/mL Hygromycin B and 300 μg/mL G418), TrypLE™ Express and DPBS to R.T. was warmed in advance. • 2. For induction, 1 μg/ml tetracycline (final concentration) was added to cell culture medium and incubated for 48 hours prior to seeding cells into plate at 37° C., 5% (v/v) CO2. The cell culture medium was removed from flask. Cells were washed with DPBS. • 3. 2 mL TrypLE™ Express was added to the flask, mixed well by gentle shaking and cells were incubated at 37° C. for a few minutes. • 4. The cells were checked for morphological change under microscope, the digestion was stopped by adding 4 mL cell culture medium to the flask when most of cells turned to round. • 5. The cell suspension was transferred into a 15 mL centrifuge tube, and then centrifuged at 1,200 rpm for 5 minutes. • 6. The supernatant was removed. The cell pellet was resuspended with 2 mL cell culture medium. • 7. The cell density was counted using cell counter. Only cells with >85% viability were used for the assay. • 8. Cells were diluted to 6.67×10^5/mL with cell culture medium. • 9. 30 μL/well cell suspensions added into a 384-well cell plate (The cell density was 20,000 cells/well). • 10. The cell plate was incubated overnight at 37° C., 5% (v/v) CO2.
On the day of experiments, culture medium was removed from the cell plate.
10 μL of assay buffer (20 mM HEPES, in 1×HBSS, pH 7.4) was added to each well of the cell plate.
2×dye solution was prepared following the manual of the FLIPR® Calcium 6 Assay Kit: • i. The dye was diluted with assay buffer. • ii. Probenecid was added to the final concentration of 5 mM. • iii. Vortexed vigorously for 1-2 minutes. • 4. 10 μL of 2×dye solution was added to each well of the cell plate • 5. The cell plate was placed on plate shaker, followed by shaking at 600 rpm for 2 minutes. • 6. The plate was incubated at 37° C. for 2 hours followed by an additional 15-minute incubation at 25° C. 2.4 Prepare 3×compound • 1. Serotonin HCl was prepared to the concentration of 10 mM with DMSO. • 2. The test compounds were prepared to the concentration of 10 mM with DMSO. • 3. The compounds were added to a 384-well compound source plate. • 4. 3-folds serial dilutions were performed with DMSO. • 5. 90 nL/well of serial diluted compounds was transferred from source plate to a 384-well compound plate by using an Echo. • 6. 30 μL/well of assay buffer (20 mM HEPES in 1×HBSS, pH 7.4) was added to the compound plate. • 7. The plate was mixed on-plate shaker for 2 minutes.
• 1. After the cells were incubated with dye solution, the cell plate, compound plate containing 3×compounds and FLIPR tips were placed into FLIPR. • 2. 10 μL of 3×compounds transferred from the compound plate to the cell plate by FLIPR. • 3. The plate was read for 160 sec with 1 sec interval and the data of agonist mode was obtained.
• 1. The normalized fluorescence reading (RFU) was calculated as shown below, wherein Fmax and Fmin stand for maximum and minimum of calcium signal during defined time window:
[formula] • 2. EC50 by fitting RFU against log of compound concentrations with Hill equation was calculated using XLfit.

[3] = FLIPR agonist mode, HTR2A&Gα15-HEK293 cells, ND: not detected, read-out: h5-HT2A, EC50

For CN1CCC[C@@H]1Cc1c[nH]c2cccc(O)c12 [Compound 10, (R)-3-((1-methylpyrrolidin-2-yl)methyl)-1H-indol-4-ol], the IC50 [1] was 148 nM, the EC50 [2] was 47 nM and the “RFU@10 μM” value [2] was 2929 RFU.

For [2H]C([2H])(c1c[nH]c2cccc(O)c12)[C@H]1CCCN1C([2H])([2H])[2H] [Compound 13, (R)-3-((1-(methyl-d3)pyrrolidin-2-yl)methyl-d2)-1H-indol-4-ol], the IC50 [1] was 156 nM, the EC50 [2] was 44 nM and the “RFU@10 μM” value [2] was 3108 RFU.

For CN1CCC[C@@H]1Cc1c[nH]c2cccc(OC(=O)CCCC(=O)Oc3cccc4[nH]cc(C[C@H]5CCCN5C)c34)c12 [Compound I-13, Bis(3-(((R)-1-methylpyrrolidin-2-yl)methyl)-1H-indol-4-yl) glutarate], the IC50 [1] was 154 nM, the EC50 [2, 3] was 32.3 nM and the “RFU@10 μM” value [2] was 3887 RFU.

With [2H]C([2H])(c1c[nH]c2cccc(OC(=O)CCCC(=O)Oc3cccc4[nH]cc(C([2H])([2H])[C@H]5CCCN5C([2H])([2H])[2H])c34)c12)[C@H]1CCCN1C([2H])([2H])[2H] [Compound I-22, bis(3-(((R)-1-(methyl-d3)pyrrolidin-2-yl)methyl-d2)-1H-indol-4-yl) glutarate] the IC50 [1] was 124 nM, the EC50 [2, 3] was 13.1 nM and the “RFU@10 μM” value [2] was 5409 RFU.

With CN(C)CCc1c[nH]c2cccc(O)c12 [Psilocin, 4-hydroxy-N,N-dimethyltryptamine, reference compound] the IC50 ([1]; radioligand binding, [3H]-8-Hydroxy-DPAT, read-out: h5-HT1A, IC50) was 196 nM and the “RFU@10 μM” value [2] was 308 RFU.
